# Measured values as given in patent publication US20220177466A1, “DEGRADERS OF KELCH-LIKE ECH-ASSOCIATED PROTEIN 1 (KEAP1)” (DANA-FARBER CANCER INSTITUTE, INC., priority 2019, published 2022).
# How the values were obtained:
# Assay type in all cases: cell-based
# KEAP1 [1] = molecular target: T1, KEAP1 (Homo sapiens, UniProt Q14145); experiment: Rescue of degrader-induced KEAP1 degradation by pretreatment in MM.1S cells, immunoblot; conditions: pretreatment 2 h (10 μM DGY-03-118, 10 μM Lenalidomide, 0.5 μM Bortezomib, 1 μM MLN4924); for rescue of the KEAP1 degradation induced by compound 1: then 5 μM compound 1 for 2 h, FIG. 4A; for rescue of the KEAP1 degradation induced by compound 4: then 5 μM compound 4 for 2 h, FIG. 4B
# T1 construct: endogenous in cells; host or cells: MM.1S cells
# T1 sequence (Q14145 whole entry): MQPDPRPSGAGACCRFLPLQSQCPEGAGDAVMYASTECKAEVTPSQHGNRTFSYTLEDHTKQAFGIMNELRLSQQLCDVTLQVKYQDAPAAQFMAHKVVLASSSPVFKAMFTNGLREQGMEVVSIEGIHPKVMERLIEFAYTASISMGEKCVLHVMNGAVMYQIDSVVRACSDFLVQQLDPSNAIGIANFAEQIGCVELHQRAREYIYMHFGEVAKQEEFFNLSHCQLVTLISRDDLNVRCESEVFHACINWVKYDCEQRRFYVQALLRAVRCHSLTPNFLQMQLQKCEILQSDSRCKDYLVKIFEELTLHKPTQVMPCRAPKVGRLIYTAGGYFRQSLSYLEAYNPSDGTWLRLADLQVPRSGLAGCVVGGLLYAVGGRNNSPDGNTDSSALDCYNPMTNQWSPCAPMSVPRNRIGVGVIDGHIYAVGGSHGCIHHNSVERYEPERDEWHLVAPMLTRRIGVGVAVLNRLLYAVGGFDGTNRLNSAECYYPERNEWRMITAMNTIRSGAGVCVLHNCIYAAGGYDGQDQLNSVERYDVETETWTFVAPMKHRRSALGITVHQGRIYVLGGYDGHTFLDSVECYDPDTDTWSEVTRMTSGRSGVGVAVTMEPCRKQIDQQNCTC
# Description: (§1) MM.1S cells were treated with 0, 0.1 μM, 1 μM, or 10 μM of compound 1 or compound 4 or 0.25 μM THAL-SNS-032 (a known CDK9 degrader, as a positive control for CDK9 degradation) for 16 hours. Cells were then lysed in RIPA buffer (Sigma) containing protease/phosphatase inhibitor cocktail (Roche). The protein concentrations were measured by bicinchoninic acid assay (BCA) analysis (Pierce™). Equal amounts of protein were resolved by 4-12% Tris-Base gels (Invitrogen), and then transferred to the Immuno-Blot polyvinylidene difluoride (PVDF) membrane (BioRad), and immunoblotted with primary antibodies against KEAP1 (cell signaling), CRBN (cell signaling), CDK9 (cell signaling) and R-Actin (cell signaling), and then immunoblotted with IRDye® 800-labeled goat anti-rabbit IgG and IRDye®800-labeled goat anti-mouse IgG (LI-COR) secondary antibodies. The membranes were detected on Odyssey CLx system.
# (§2) MM.1S cells were pretreated with 10 μM DGY-03-118 (the parental compound and known KEAP1 inhibitor), 10 μM Lenalidomide (CRBN ligand), 0.5 μM Bortezomib (a proteasome inhibitor) and 1 μM MLN4924 (a neddylation inhibitor) for 2 h, and then treated with 5 μM compound 1 for 2 h. Cells were lysed and immunoblotted as described above with antibodies to KEAP1 and β-Actin.
# as §2, with “compound 4” for “compound 1”
# CDK9 = molecular target: T2, CDK9 (Homo sapiens, UniProt P50750+Q96SW2); experiment: CDK9 degradation in MM.1S cells, immunoblot (positive control); conditions: 0.25 μM, 16 hours, FIG. 1
# T2 construct: endogenous in cells; host or cells: MM.1S cells
# Description: as §1
# KEAP1 [2] = molecular target: T1, KEAP1; experiment: KEAP1 degradation in wild-type (WT) MM.1S cells, immunoblot; conditions: 5 μM, 0, 2, 4 or 6 h, FIG. 3
# Description: as §1
# (§3) Wild-type (WT) (left panel) or CRBN−/− (right panel) MM.1 S cells were treated with 0 or 5 μM compound 1 or compound 4 for 0, 2, 4, or 6 h. Cells were lysed and immunoblotted as described above with antibodies to KEAP1 (cell signaling) and R-Actin (cell signaling).
# KEAP1 [3] = molecular target: T1, KEAP1; experiment: KEAP1 levels after washout in MM.1S cells, immunoblot; conditions: 5 μM for 2 h, washout at 2, 4, 7 and 24 hours, FIG. 5A/5B
# Description: as §1
# MM.1S cells were treated with 0 or 5 μM compound 1 for 2 h, followed by washout at 2, 4, 7, and 24 hours. Cells were lysed and immunoblotted as described above with antibodies to KEAP1 and β-Actin.
# MM.1S cells were treated with 0 or 5 μM compound 4 for 2 h, followed by washout at 2, 4, 7, and 24 hours. Cells were lysed and immunoblotted as described above with antibodies to KEAP1 and β-Actin.
# KEAP1 [4] = molecular target: T1, KEAP1; experiment: Knockdown of KEAP1 in MM.1S cells, immunoblot, concentration series, 16 h; conditions: 0.1 μM, 1 μM or 10 μM, FIG. 1
# Description: as §1
# GSPT1 = molecular target: T3, GSPT1 (Homo sapiens, UniProt P15170); experiment: Off-target degradation in MM.1S cells, immunoblot: GSPT1; conditions: 5 μM, up to 6 h, FIG. 2
# T3 construct: endogenous in cells; host or cells: MM.1S cells
# T3 sequence (Q96SW2 whole entry partner): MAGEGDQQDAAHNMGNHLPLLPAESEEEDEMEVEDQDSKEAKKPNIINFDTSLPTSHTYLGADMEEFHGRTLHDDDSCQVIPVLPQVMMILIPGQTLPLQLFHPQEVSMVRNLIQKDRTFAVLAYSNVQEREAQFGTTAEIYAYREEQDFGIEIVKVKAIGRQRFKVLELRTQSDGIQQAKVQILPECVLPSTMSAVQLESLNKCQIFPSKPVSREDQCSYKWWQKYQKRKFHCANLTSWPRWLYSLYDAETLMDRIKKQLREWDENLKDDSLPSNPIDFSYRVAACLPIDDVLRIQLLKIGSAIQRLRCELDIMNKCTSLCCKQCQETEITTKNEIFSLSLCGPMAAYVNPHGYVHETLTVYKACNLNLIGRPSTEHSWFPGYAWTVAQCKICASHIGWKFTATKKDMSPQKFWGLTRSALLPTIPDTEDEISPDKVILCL
# T3 sequence (Q16531 whole entry partner): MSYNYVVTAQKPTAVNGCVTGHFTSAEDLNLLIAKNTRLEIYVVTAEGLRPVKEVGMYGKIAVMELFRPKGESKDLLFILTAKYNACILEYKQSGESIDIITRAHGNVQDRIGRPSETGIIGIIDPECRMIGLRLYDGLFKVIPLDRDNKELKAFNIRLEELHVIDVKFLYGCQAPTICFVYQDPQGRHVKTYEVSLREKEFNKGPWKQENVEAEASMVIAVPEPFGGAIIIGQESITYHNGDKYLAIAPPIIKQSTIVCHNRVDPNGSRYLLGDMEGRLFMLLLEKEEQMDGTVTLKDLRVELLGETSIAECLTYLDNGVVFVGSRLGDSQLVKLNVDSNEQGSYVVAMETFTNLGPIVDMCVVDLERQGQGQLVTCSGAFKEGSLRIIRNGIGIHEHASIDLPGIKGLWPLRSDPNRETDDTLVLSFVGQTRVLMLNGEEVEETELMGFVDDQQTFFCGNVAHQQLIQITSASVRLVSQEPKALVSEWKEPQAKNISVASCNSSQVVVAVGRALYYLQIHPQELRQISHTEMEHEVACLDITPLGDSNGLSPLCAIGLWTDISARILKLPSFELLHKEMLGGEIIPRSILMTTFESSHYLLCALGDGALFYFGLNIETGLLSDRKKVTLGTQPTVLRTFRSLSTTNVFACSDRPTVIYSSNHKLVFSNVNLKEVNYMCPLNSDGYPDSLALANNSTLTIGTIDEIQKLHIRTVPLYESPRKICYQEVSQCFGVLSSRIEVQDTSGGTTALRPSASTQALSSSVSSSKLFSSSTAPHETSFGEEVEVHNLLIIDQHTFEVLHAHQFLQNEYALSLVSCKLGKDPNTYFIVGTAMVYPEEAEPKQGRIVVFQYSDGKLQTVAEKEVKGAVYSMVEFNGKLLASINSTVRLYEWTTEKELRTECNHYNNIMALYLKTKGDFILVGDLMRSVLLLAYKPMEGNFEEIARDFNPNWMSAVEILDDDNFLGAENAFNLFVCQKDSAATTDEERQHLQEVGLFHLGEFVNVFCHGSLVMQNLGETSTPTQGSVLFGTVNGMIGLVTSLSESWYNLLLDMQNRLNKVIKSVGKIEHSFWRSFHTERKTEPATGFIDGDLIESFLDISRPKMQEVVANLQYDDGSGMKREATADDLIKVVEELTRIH
# T3 sequence (P15170 whole entry): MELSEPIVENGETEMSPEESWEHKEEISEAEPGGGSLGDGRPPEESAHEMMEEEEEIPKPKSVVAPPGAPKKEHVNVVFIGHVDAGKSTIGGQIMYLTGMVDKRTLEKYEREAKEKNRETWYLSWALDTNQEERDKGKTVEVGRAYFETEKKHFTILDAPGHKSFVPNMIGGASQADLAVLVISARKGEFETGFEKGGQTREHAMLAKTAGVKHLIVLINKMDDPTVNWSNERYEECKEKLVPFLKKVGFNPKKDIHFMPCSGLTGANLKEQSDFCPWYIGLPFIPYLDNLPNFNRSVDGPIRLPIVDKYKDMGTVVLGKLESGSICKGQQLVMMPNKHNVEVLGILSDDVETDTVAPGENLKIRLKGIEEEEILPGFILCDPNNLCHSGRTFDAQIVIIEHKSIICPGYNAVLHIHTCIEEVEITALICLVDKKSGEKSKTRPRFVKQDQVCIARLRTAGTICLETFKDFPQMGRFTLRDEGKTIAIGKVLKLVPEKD
# Description: as §1
# (§4) MM.1S cells were treated with 0 or 5 μM compound 1 or compound 4 for 0, 2, 4, or 6 h. Cells were lysed and immunoblotted as described above with antibodies to KEAP1 (cell signaling), CRBN (cell signaling), IKZF1 (cell signaling), IKZF3 (cell signaling), GSPT1 (abcam) and R-Actin (cell signaling).
# IKZF3 = molecular target: T4, IKZF3 (Homo sapiens, UniProt Q9UKT9); experiment: Off-target degradation in MM.1S cells, immunoblot: IKZF3; conditions: 5 μM, up to 6 h, FIG. 2
# T4 construct: endogenous in cells; host or cells: MM.1S cells
# T4 sequence (Q96SW2 whole entry partner): as the sequence (Q96SW2 whole entry partner) above
# T4 sequence (Q16531 whole entry partner): as the sequence (Q16531 whole entry partner) above
# T4 sequence (Q9UKT9 whole entry): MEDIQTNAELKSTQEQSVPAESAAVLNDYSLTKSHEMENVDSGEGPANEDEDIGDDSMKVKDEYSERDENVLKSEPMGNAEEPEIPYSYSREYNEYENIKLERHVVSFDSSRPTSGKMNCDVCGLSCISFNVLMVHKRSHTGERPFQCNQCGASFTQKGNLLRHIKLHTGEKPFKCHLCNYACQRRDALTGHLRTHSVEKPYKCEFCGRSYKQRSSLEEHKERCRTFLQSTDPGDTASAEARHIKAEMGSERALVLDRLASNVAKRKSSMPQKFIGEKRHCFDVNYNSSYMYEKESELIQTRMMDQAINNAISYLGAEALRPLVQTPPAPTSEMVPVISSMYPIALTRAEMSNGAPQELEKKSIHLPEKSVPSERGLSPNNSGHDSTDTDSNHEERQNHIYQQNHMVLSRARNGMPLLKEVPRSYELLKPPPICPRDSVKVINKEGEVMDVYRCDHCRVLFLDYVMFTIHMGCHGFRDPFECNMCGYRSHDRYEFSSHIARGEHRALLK
# Description: as §1, §4
# KEAP1 [5] = molecular target: T1, KEAP1; experiment: KEAP1 degradation in CRBN−/− MM.1S cells, immunoblot; conditions: 5 μM, 0, 2, 4 or 6 h, FIG. 3
# Description: as §1, §3
# IKZF1 = molecular target: T5, IKZF1 (Homo sapiens, UniProt Q13422); experiment: Off-target degradation in MM.1S cells, immunoblot: IKZF1; conditions: 5 μM, up to 6 h, FIG. 2
# T5 construct: endogenous in cells; host or cells: MM.1S cells
# T5 sequence (Q96SW2 whole entry partner): as the sequence (Q96SW2 whole entry partner) above
# T5 sequence (Q16531 whole entry partner): as the sequence (Q16531 whole entry partner) above
# T5 sequence (Q13422 whole entry): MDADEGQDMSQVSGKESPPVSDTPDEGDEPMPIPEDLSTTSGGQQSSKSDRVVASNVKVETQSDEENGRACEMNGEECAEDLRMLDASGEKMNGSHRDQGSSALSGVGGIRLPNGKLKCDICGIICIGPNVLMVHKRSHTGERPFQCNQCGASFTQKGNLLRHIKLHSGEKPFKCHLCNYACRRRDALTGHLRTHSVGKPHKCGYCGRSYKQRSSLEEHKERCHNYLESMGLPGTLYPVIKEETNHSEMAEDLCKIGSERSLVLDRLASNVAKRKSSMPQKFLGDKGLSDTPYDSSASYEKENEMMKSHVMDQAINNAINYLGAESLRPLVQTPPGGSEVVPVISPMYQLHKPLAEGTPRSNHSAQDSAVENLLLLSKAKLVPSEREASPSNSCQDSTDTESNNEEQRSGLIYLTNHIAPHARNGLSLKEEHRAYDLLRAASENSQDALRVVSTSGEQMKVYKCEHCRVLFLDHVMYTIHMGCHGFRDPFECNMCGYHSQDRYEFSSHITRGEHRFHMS
# Description: as §1, §4
Compound,rescue of the KEAP1 degradation induced by compound 1 (KEAP1 [1]),rescue of the KEAP1 degradation induced by compound 4 (KEAP1 [1]),CDK9 degradation (CDK9),KEAP1 degradation in WT MM.1S cells (KEAP1 [2]),degradation of KEAP1 (KEAP1 [4]),degradation of potential off target GSPT1 (GSPT1),degradation of potential off target IKZF3 (IKZF3),KEAP1 degradation in CRBN−/− MM.1S cells (KEAP1 [5]),degradation of potential off target IKZF1 (IKZF1),KEAP1 levels after washout relative to vehicle-treated cells (KEAP1 [3])
CC(C)C[C@H](NC(=O)[C@H](Cc1ccccc1)NC(=O)c1cnccn1)B(O)O [Bortezomib],rescued the KEAP1 degradation,rescued the KEAP1 degradation,,,,,,,,
NS(=O)(=O)OC[C@@H]1C[C@@H](n2ccc3c(N[C@H]4CCc5ccccc54)ncnc32)C[C@@H]1O [MLN4924],rescued the KEAP1 degradation,rescued the KEAP1 degradation,,,,,,,,
"COc1cc(C(CC(=O)O)c2ccc(C)c(CN3C[C@@H](C)Oc4cc(CCCCCCNC(=O)COc5cc6c7c(cccc7c5)C(=O)N(C5CCC(=O)NC5=O)C6=O)ccc4S3(=O)=O)c2)cc2nnn(C)c12 (stereo partly drawn) [compound 4, 3-(3-(((4R)-7-(6-(2-((2-(2,6-dioxopiperidin-3-yl)-1,3-dioxo-2,3-dihydro-1H-benzo[de]isoquinolin-5-yl)oxy)acetamido)hexyl)-4-methyl-1,1-dioxido-3,4-dihydro-2H-benzo[b][1,4,5]oxathiazepin-2-yl)methyl)-4-methylphenyl)-3-(7-methoxy-1-methyl-1H-benzo[d][1,2,3]triazol-5-yl)propanoic Acid]",,,,induced KEAP1 degradation,induced the degradation of KEAP1,did not induce the degradation,did not induce the degradation,did not induce KEAP1 degradation,did not induce the degradation,remained below levels in vehicle-treated cells even 24 h after washout

# Continued, in another order:
rescue of the KEAP1 degradation induced by compound 1 (KEAP1 [1]),rescue of the KEAP1 degradation induced by compound 4 (KEAP1 [1]),CDK9 degradation (CDK9),KEAP1 degradation in WT MM.1S cells (KEAP1 [2]),degradation of KEAP1 (KEAP1 [4]),degradation of potential off target GSPT1 (GSPT1),degradation of potential off target IKZF3 (IKZF3),KEAP1 degradation in CRBN−/− MM.1S cells (KEAP1 [5]),degradation of potential off target IKZF1 (IKZF1),Compound,KEAP1 levels after washout relative to vehicle-treated cells (KEAP1 [3])
rescued the KEAP1 degradation,rescued the KEAP1 degradation,,,,,,,,Nc1cccc2c1CN(C1CCC(=O)NC1=O)C2=O (stereo not drawn) [Lenalidomide],
,,induced CDK9 degradation,,,,,,,CC(C)(C)c1cnc(CSc2cnc(NC(=O)C3CCN(CC(=O)NCCOCCOCCOCCNc4cccc5c4C(=O)N(C4CCC(=O)NC4=O)C5=O)CC3)s2)o1 (stereo not drawn) [THAL-SNS-032],
,,,induced KEAP1 degradation,induced the degradation of KEAP1,did not induce the degradation,did not induce the degradation,did not induce KEAP1 degradation,did not induce the degradation,"COc1cc(C(CC(=O)O)c2ccc(C)c(CN3C[C@@H](C)Oc4cc(CCCCCCNC(=O)COc5cccc6c5C(=O)N(C5CCC(=O)NC5=O)C6=O)ccc4S3(=O)=O)c2)cc2nnn(C)c12 (stereo partly drawn) [compound 1, 3-(3-(((4R)-7-(6-(2-((2-(2,6-dioxopiperidin-3-yl)-1,3-dioxoisoindolin-4-yl)oxy)acetamido)hexyl)-4-methyl-1,1-dioxido-3,4-dihydro-2H-benzo[b][1,4,5]oxathiazepin-2-yl)methyl)-4-methylphenyl)-3-(7-methoxy-1-methyl-1H-benzo[d][1,2,3]triazol-5-yl)propanoic Acid]",remained below levels in vehicle-treated cells 4 h after washout
